Experimental data reported in article PMC8128204, “Development of 3-methyl/3-(morpholinomethyl)benzofuran derivatives as novel antitumor agents towards non-small cell lung cancer cells” (Journal of Enzyme Inhibition and Medicinal Chemistry, 2021).
≈ marks a conversion by molar mass, not a printed value.

Key:
NCI-H23 cells [1] = test: MTT anti-proliferative assay, NCI-H23; assay type: cell-based, human; settings: mean ± SD of three experiments
Description: (§1) The antiproliferative activity of the synthesised derivatives of the 3-methylbenzofuran series (4a–d, 6a–c, 8a–c and 11) and the 3-(morpholinomethyl)benzofuran series (15a–c, 16a–b, 17a–b and 18) was evaluated against non-small cell lung carcinoma (NSCLC) A549 and NCI-H23 cell lines, following the procedures of the MTT assay. […] 1. Anti-proliferative action toward human […] cell lines […]
(§2) The two examined human non-small cell lung carcinoma cell lines (A549 and NCI-H23) have been obtained from American Type Culture Collection (ATCC). The cells were maintained in Dulbecco's modified Eagle's medium (DMEM) supplemented with 10% heat inactivated fetal calf serum (GIBCO), penicillin (100 U/ml) and streptomycin (100 µg/ml) at 37 °C in humidified atmosphere containing 5% CO2. […]
(§3) flask in 5 ml of culture medium. The anti-proliferative activity of the tested 3-methylbenzofurans (4a-d, 6a-c, 8a-c and 11) and 3-(morpholinomethyl)benzofurans (15a-c, 16a-b, 17a-b and 18) measured in vitro using the MTT assay. Briefly, cells were plated out in 96-well microtiter plate (0.5X10^4 cells/well) and incubated for 24 h before treatment with the tested benzofurans to allow cells to attach to the bottom of the well of the plate. Tested benzofuranswere were dissolved in DMSO at 1 mg/ml immediately before use and diluted to the appropriate volume just before addition to the cell culture. […]
(§4) added to the cells (three wells were prepared for each individual dose). Cells were incubated with […]
(§5) At the end of exposure, MTT […]
(§6) solution in PBS (5 mg/ml) was then added to all well including no cell blank and left to incubate for 90 min. The formation of formazan crystals were visually confirmed using phase contract microscopy. DMSO (100 µl/well) was added to dissolve the formazan crystals with shaking for 10 min after which the absorbance was read at 590 nm against no cell blanks on a microplate reader.
(§7) The relation between percent of surviving fraction and log drug concentration is plotted to get the survival curve for each cell line.

A549 cells = test: MTT anti-proliferative assay, A549; assay type: cell-based, human; settings: mean ± SD of three experiments
Description: as §1, §2, §3, §4, §5, §6, §7

WI-38 cell line = test: Cytotoxic activity against non-tumorigenic WI-38 cell line; assay type: cell-based, human; settings: for Mean tumour selectivity: S.I. WI-38/A549 and NCI-H23; for IC50: non-tumorigenic human lung WI-38 cell line
Description: Antiproliferative agents are designed to inhibit the cellular growth of tumour cells selectively, while sparing the normal cells.

VEGFR-2 = VEGFR-2 (Homo sapiens, UniProt P35968); test: VEGFR-2 kinase inhibitory assay (VEGFR2(KDR) Kinase Assay Kit)
Chain of VEGFR-2 (P35968 20-1356): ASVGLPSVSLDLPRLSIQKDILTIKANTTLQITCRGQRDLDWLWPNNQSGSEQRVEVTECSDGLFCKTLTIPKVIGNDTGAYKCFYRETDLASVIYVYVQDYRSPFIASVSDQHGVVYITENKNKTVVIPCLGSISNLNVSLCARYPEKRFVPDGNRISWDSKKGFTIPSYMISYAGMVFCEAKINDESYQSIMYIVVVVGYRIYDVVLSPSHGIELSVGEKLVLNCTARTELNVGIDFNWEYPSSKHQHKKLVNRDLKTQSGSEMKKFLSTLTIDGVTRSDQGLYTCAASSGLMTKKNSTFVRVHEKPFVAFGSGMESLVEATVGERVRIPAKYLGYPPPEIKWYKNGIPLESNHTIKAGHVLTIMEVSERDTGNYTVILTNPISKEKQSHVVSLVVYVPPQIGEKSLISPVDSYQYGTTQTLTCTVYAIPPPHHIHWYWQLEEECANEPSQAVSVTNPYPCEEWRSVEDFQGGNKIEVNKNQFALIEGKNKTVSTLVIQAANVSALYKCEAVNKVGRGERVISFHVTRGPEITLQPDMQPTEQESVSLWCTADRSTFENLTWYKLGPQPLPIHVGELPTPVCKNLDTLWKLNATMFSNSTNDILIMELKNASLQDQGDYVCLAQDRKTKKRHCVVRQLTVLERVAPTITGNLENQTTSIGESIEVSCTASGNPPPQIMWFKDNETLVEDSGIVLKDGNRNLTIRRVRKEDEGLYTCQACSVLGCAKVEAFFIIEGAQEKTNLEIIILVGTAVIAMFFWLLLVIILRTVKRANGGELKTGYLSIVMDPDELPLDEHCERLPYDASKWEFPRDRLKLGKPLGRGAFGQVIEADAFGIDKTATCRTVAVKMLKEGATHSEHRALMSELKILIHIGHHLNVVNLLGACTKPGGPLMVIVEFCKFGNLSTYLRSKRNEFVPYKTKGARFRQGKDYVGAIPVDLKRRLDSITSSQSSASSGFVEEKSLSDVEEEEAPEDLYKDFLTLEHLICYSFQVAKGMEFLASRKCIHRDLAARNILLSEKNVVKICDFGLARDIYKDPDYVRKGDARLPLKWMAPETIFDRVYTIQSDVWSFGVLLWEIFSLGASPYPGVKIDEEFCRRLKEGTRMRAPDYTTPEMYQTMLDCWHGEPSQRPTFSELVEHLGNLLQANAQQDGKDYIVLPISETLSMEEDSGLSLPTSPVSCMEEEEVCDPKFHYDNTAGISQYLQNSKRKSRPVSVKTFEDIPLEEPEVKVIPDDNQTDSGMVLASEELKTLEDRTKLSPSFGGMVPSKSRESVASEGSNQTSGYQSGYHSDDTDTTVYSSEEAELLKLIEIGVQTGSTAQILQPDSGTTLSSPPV
Description: CA, USA), according to the manufacturer’s instructions.

[2] = system: M. tuberculosis ATCC 27294; test: Microplate Alamar Blue Assay, anti-tubercular activity; assay type: cell-based; settings: Mycobacterium tuberculosis, ATCC27294, 168 h, MABA, 7 days, read-out: MIC
NCI-H23 cells [3] = test: Cell cycle analysis (PI flow cytometry), NCI-H23; assay type: cell-based, human; settings: NCI-H23, 24 h at IC50 concentration; for S phase, fold vs control: attenuated; for G2/M phase cell population, fold vs control / sub-G1 phase cell population, fold vs control: augmentation; for G0–G1 phase, fold vs control: reduced
Description: (§8) Lung cancer A549 cells were treated with benzofuran 4b, whereas NCI-H23 cells were treated […]
twice with ice-cold phosphate buffered saline (PBS). Subsequently, the treated cells were collected by centrifugation, fixed in ice-cold 70% (v/v) ethanol, washed with PBS, re-suspended with 100 μg/mL RNase, stained with 40 μg/mL PI, and analyzed by flow cytometry using FACS Calibur (Becton Dickinson, BD, Franklin Lakes, NJ, USA). The cell cycle distributions were calculated using CellQuest software 5.1 (Becton Dickinson). […]

NCI-H23 cells [4] = test: Annexin V-FITC/PI apoptosis assay, NCI-H23; assay type: cell-based, human; settings: NCI-H23, at IC50 concentration; control 2.09%
Description: The apoptotic effect of the three benzofurans (4b, 15a and 16a) was evaluated using Annexin VFITC/PI (AV/PI) dual staining assay to validate if their observed cytotoxic effect is due to non-specific necrosis or physiological apoptosis. […] Moreover, the apoptotic effects of 3-(morpholinomethyl)benzofuran derivatives 15a and 16a were evaluated in NCI-H23 cancer cell line.
as §8
twice with ice-cold phosphate buffered saline (PBS). Subsequently, the treated cells were collected by centrifugation, fixed in ice-cold 70% (v/v) ethanol, washed with PBS, re-suspended with 100 μg/mL RNase, stained with 40 μg/mL PI, and analyzed by flow cytometry using FACS Calibur (Becton Dickinson, BD, Franklin Lakes, NJ, USA). The cell cycle distributions were calculated using CellQuest software 5.1 (Becton Dickinson).
3. Annexin V-FITC Apoptosis Assay […]
Cells were then rinsed in binding buffer and resuspended in 150 μL of binding buffer with the addition of 1 μL of DAPI (1 μg/μL in PBS). Cells were then analyzed using the flow cytometer BD FACS Canto II and the results were interpreted with FlowJo7.6.4 software (Tree Star, Ashland, 4. VEGFR-2 Kinase Inhibitory Activity […]

Row | Compound | IC50 (NCI-H23 cells [1]; Homo sapiens, NCI-H23, 48 h) [µM] | melting point [°C] | IC50 (A549 cells; Homo sapiens, A549, 48 h) [µM] | further results
1 | COc1cccc(NC(=S)NNC(=O)c2oc3ccccc3c2CN2CCOCC2)c1 [Compound 15a, N-(3-Methoxyphenyl)-2-(3-(morpholinomethyl)benzofuran-2-carbonyl)hydrazine-1-carbothioamide] | 2.52 ± 0.13 | 190 to 192 | 5.27 ± 0.29 | IC50 (NCI-H23 cells [1]; 48 h): 2.52 ± 0.13 µM; Mean tumour selectivity (WI-38 cell line): 8.4; IC50 (WI-38 cell line): 32.8 ± 1.98 µM; IC50 (VEGFR-2): 0.133 ± 0.0078 µM; IC50 (A549 cells; 48 h): 5.27 ± 0.29 µM; MIC [2]: 62.5 µg/mL (≈ 142 µM); S phase, fold vs control (NCI-H23 cells [3]): 0.50 fold; G2/M phase cell population, fold vs control (NCI-H23 cells [3]): 5.33 fold; sub-G1 phase cell population, fold vs control (NCI-H23 cells [3]): 13.13 fold; G0–G1 phase, fold vs control (NCI-H23 cells [3]): 0.56 fold; total apoptosis (NCI-H23 cells [4]): 34.59%
2 | Cc1c(C(=O)NNC(=S)Nc2ccc(F)cc2)oc2ccccc12 [Compound 4d, N-(4-Fluorophenyl)-2-(3-methylbenzofuran-2-carbonyl)hydrazine-1-carbothioamide] | 67.2 ± 3.36 | 206 to 210 | 12.8 ± 0.7 | –
3 | NNC(=O)c1ccncc1 [INH, Isoniazid, reference compound] | – | – | – | MIC [2]: 0.24 µg/mL (≈ 1.75 µM)
4 | COc1cccc(NC(=S)NNC(=O)c2oc3ccccc3c2C)c1 [Compound 4a, N-(3-Methoxyphenyl)-2–(3-methylbenzofuran-2-carbonyl)hydrazine-1-carbothioamide] | 34.2 ± 1.71 | 172 to 174 | 10.1 ± 0.55 | –
5 | Cc1c(C(=O)NNC(=S)Nc2cccc(C(F)(F)F)c2)oc2ccccc12 [Compound 4c, 2-(3-Methylbenzofuran-2-carbonyl)-N-(3-(trifluoromethyl)phenyl)hydrazine-1-carbothioamide] | 24.36 ± 0.12 | 170 to 172 | – | –
6 | O=C(NN=C1CCCc2ccccc21)c1oc2ccccc2c1CN1CCOCC1 [Compound 18, N'-(3,4-Dihydronaphthalen-1(2H)-ylidene)-3-(morpholinomethyl)benzofuran-2-carbohydrazide] | 29.8 ± 1.49 | 200 | 3.7 ± 0.2 | –
7 | Cc1c(C(=O)NN=C2CCCc3ccccc32)oc2ccccc12 [Compound 11, N'-(3,4-Dihydronaphthalen-1(2H)-ylidene)-3-methylbenzofuran-2-carbohydrazide] | 12.1 ± 0.6 | 180 to 182 | 30.2 ± 1.65 | –
8 | COc1cccc(NC(=O)NNC(=O)c2oc3ccccc3c2CN2CCOCC2)c1 [Compound 16a, N-(3-Methoxyphenyl)-2-(3-(morpholinomethyl)benzofuran-2-carbonyl)hydrazine-1-carboxamide] | 0.49 ± 0.02 | – | 1.52 | Mean tumour selectivity (WI-38 cell line): 12.9; IC50 (WI-38 cell line): 12.9 ± 0.78 µM; IC50 (VEGFR-2): 0.0454 ± 0.0027 µM; IC50 (A549 cells; 48 h): 1.5 ± 0.08 µM; MIC [2]: 125 µg/mL (≈ 294 µM); S phase, fold vs control (NCI-H23 cells [3]): 0.51 fold; G2/M phase cell population, fold vs control (NCI-H23 cells [3]): 6.90 fold; sub-G1 phase cell population, fold vs control (NCI-H23 cells [3]): 12.54 fold; G0–G1 phase, fold vs control (NCI-H23 cells [3]): 0.47 fold; total apoptosis (NCI-H23 cells [4]): 36.81%

The next lines start with results.

Row | IC50 (NCI-H23 cells [1]; Homo sapiens, NCI-H23, 48 h) [µM] | melting point [°C] | IC50 (A549 cells; Homo sapiens, A549, 48 h) [µM] | Compound | further results
9 | 23 ± 1.15 | 174 | 6.01 ± 0.03 | O=C(NN=Cc1ccccc1)c1oc2ccccc2c1CN1CCOCC1 [Compound 17a, N'-Benzylidene-3-(morpholinomethyl)benzofuran-2-carbohydrazide] | –
10 | 2.21 | 210 to 212 | 6.3 ± 0.34 | O=C(NNC(=S)Nc1cccc(C(F)(F)F)c1)c1oc2ccccc2c1CN1CCOCC1 [Compound 15c, 2-(3-(Morpholinomethyl)benzofuran-2-carbonyl)-N-(3-(trifluoromethyl)phenyl)hydrazine-1-carbothioamide] | IC50 (NCI-H23 cells [1]; 48 h): 2.22 ± 0.11 µM
11 | 68.9 ± 3.44 | 198 to 200 | 5.7 ± 0.31 | COc1ccc(NC(=S)NNC(=O)c2oc3ccccc3c2CN2CCOCC2)cc1 [Compound 15b, N-(4-Methoxyphenyl)-2-(3-(morpholinomethyl)benzofuran-2-carbonyl)hydrazine-1-carbothioamide] | –
12 | 6.15 ± 0.31 | 236 to 240 | 9.2 ± 0.5 | COc1ccc(C=NNC(=O)c2oc3ccccc3c2C)cc1 [Compound 8b, N'-(4-Methoxybenzylidene)-3-methylbenzofuran-2-carbohydrazide] | –
13 | 14 ± 0.7 | 160 | 16.4 ± 0.89 | COc1ccc(C(C)=NNC(=O)c2oc3ccccc3c2C)cc1 [Compound 8c, N'-(1-(4-Methoxyphenyl)ethylidene)-3-methylbenzofuran-2-carbohydrazide] | –
14 | 5.09 ± 0.25 | 242 to 244 | 18.9 ± 1.03 | COc1ccc(NC(=O)NNC(=O)c2oc3ccccc3c2CN2CCOCC2)cc1 [Compound 16b, N-(4-Methoxyphenyl)-2-(3-(morpholinomethyl)benzofuran-2-carbonyl)hydrazine-1-carboxamide] | –
15 | 56.7 ± 2.83 | 162 to 164 | 15.1 ± 0.83 | COc1cccc(NC(=O)NNC(=O)c2oc3ccccc3c2C)c1 [Compound 6a, N-(3-Methoxyphenyl)-2-(3-methylbenzofuran-2-carbonyl)hydrazine-1-carboxamide] | –
16 | 24.5 ± 1.23 | 240 to 242 | 47 ± 2.57 | Cc1c(C(=O)NNC(=O)Nc2ccc(Cl)c(C(F)(F)F)c2)oc2ccccc12 [Compound 6c, N-(4-Chloro-3-(trifluoromethyl)phenyl)-2-(3-methylbenzofuran-2-carbonyl)hydrazine-1-carboxamide] | –
17 | 14.9 ± 0.74 | 242 to 244 | 44.1 ± 2.41 | COc1cccc(C=NNC(=O)c2oc3ccccc3c2C)c1 [Compound 8a, N'-(3-Methoxybenzylidene)-3-methylbenzofuran-2-carbohydrazide] | –
18 | 3.04 ± 0.15 | 200 | 10.8 ± 0.59 | COc1ccc(C=NNC(=O)c2oc3ccccc3c2CN2CCOCC2)cc1 [Compound 17b, N'-(4-Methoxybenzylidene)-3-(morpholinomethyl)benzofuran-2-carbohydrazide] | –
19 | 9.24 ± 0.46 | 236 to 240 | 12.5 ± 0.68 | COc1ccc(NC(=O)NNC(=O)c2oc3ccccc3c2C)cc1 [Compound 6b, N-(4-Methoxyphenyl)-2-(3-methylbenzofuran-2-carbonyl)hydrazine-1-carboxamide] | –
